Data on 1 compound can be found in patent US20260103497A1, “DUAL GLP-1 AND GIP RECEPTOR AGONIST PHARMACEUTICAL COMPOSITION AND USE THEREOF” (BRIGHTGENE PTE. LTD., priority 2022, published 2026).

A value given as a limit tells only on which side of the number the result lay.

Data set [1] in a line: Pre-clinical pharmacokinetics in rats. The note with it: rat, in vivo.
A further data set deals with T1, GIP receptor (Homo sapiens, UniProt P48546).
T1 sequence (P48546 22-466): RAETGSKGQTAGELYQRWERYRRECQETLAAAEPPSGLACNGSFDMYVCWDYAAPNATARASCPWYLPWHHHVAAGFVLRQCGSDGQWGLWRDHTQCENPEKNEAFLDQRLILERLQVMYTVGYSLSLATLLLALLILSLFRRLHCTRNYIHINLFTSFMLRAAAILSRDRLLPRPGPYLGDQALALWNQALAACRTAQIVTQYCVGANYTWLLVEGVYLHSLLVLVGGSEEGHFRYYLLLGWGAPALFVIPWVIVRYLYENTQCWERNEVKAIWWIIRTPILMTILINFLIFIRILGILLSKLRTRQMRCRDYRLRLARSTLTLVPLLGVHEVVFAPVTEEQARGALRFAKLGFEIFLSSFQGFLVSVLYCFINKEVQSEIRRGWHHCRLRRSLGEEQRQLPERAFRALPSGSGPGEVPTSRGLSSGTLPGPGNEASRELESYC
The data set can be described thus: Preclinical agonistic effect on GIP receptor. The note with it: greater activity compared to Tirzepatide; preclinical studies.

The next data set deals with plasma proteins. Put plainly: Plasma protein binding. Format: in vitro ADME. The note with it: plasma proteins from all species.
Data set [2] in a line: Solubility of the compound of formula I in compositions with sodium chloride or propylene glycol. Format: physicochemical. The note with it: disodium hydrogen phosphate dodecahydrate, pH 7, water for injection. An excerpt:
It is worth mentioning that in polypeptide-based preparations, sodium chloride is believed to play a role in maintaining electrolyte balance and stabilizing polypeptide structures, and it is present as a stabilizer in a variety of existing polypeptide-based preparations.

Data set [3] can be described thus: Pre-clinical pharmacokinetics in cynomolgus monkeys. The note with it: cynomolgus monkey, in vivo.
A further data set deals with GLP-1 receptor (Homo sapiens, UniProt P43220). The data set can be described thus: Preclinical agonistic effect on GLP-1 receptor. The note with it: greater activity compared to Tirzepatide; preclinical studies.
GLP-1 receptor, sequence (P43220 24-463, species assumed): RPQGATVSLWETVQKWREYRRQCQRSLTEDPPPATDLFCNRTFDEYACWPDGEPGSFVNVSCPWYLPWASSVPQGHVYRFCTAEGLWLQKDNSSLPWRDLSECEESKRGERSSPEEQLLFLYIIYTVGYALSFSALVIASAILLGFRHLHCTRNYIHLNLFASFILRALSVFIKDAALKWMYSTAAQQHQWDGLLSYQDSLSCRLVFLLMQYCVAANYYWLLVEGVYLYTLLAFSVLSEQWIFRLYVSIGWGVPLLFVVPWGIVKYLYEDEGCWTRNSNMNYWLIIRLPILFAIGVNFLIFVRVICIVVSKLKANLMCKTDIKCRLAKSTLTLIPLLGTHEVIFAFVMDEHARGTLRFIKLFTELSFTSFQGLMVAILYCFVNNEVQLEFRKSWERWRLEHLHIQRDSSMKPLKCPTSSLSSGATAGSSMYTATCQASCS

For the compound `NC(=O)C(CCCCNC(=O)COCCOCCOCCNC(=O)COCCOCCOCCNC(=O)CCC(NC(=O)CC(=O)O)C(=O)O)NN[C@H](C=O)CO` (stereo partly shown) [Compound of formula I], the half-life (usually how long it takes for the measured level to halve) in data set [1] was about 14 h; in data set [3], about 40 h. Besides, the “agonistic activity on GIP receptor compared to Tirzepatide” value on GIP receptor is listed as 2- to 3 fold. For the same compound, the “binding rates to plasma proteins” value in the data set on plasma proteins is recorded as “over 99.4%”. Also, the solubility (usually the concentration that dissolves in the medium under given conditions) was at least 30000 µg/mL in data set [2] (pH 7, propylene glycol as stabilizer (14 mg in 1 mL)) and 150 µg/mL in data set [2] (sodium chloride instead of propylene glycol (16.4 mg in 2 mL)). Besides, at GLP-1 receptor, the “agonistic activity on GLP-1 receptor compared to Tirzepatide” value was 2- to 3 fold.
